Results taken from patent US20200129459A1, “THE NEW USE OF 2-[(3Z)-6-FLUORO-2-METHYL-3-[(4-[…]) METHYLIDENE]INDEN-1 -YL] ACETIC ACID” (WYZSZA SZKOLA MEDYCZNA W BIALYMSTOKU, priority 2017, published 2020).

How the values were obtained:
Type in all cases: in vivo, Wistar rats
aldose reductase = molecular target: T1, aldose reductase (Rattus norvegicus, UniProt P07943); experiment: Rat subcutaneous muscle aldose reductase activity; settings: subcutaneous muscle subjacent wound, diabetic rats
T1 construct: Tissue samples were homogenized in 135 mM Na, K-phosphate buffer (pH 7.0) containing 5 mM 2-mercaptoethanol; from tissue; host or cells: rat subcutaneous muscle subjacent to the wound (supernatant of the homogenate)
Experimental: Tissue samples were homogenized in 135 mM Na, K-phosphate buffer (pH 7.0) containing 5 mM 2-mercaptoethanol. The homogenate was centrifuged at 12,000 g for 30 min and the supernatant was used in the following steps. Aldose reductase activity was determined according to the classic method with glyceraldehyde as substrate. The incubation mixture contained 135 mM Na, K-phosphate buffer (pH 7.0), 100 mM lithium sulfate, 0.03 mM NADPH, 0.04 mM D,L-glyceraldehyde (monomerized at 80 deg C. for 10 min and cooled to RT) as a substrate and the sample solution (50 μL). The reaction was initiated by adding NADPH at 37 C and stopped by adding 0.5 M HCl, followed by the addition of 6 M NaOH containing 10 mM imidazole. The solution was heated at 60 C for 10 min to convert NADP to a fluorescent product. The fluorescence was measured using a spectrofluorometer with ex/em 360/460 nm. The assay was performed in duplicates. Protein content was determined using BCA assay.

[1] = system: rats with alloxan-induced diabetes; experiment: Histology of healed wound skin; settings: diabetic rats, skin excised next day after full epithelization; hematoxylin-eosin and van Gison staining
Experimental: Tissue specimens next day after full epithelization were excised in depth to include underlying connective tissues above the external fascia of the dorsal muscles. The excised skin was fixed in paraformaldehyde (4% in PBS, 0.01 M, pH 7.4), dehydrated in graded alcohol solutions, embedded in paraffin blocks and sectioned at 5 μm-thick serial sections using microtome.
Preparations from the collected skin fragments were prepared in a standard manner and stained with the classic method using hematoxylin and eosin, and by the van Gison method using picric acid and acid fuchsine. The preparations were analyzed using a Leica DM 1000 light microscope equipped with a Leica DFC300 FX digital camera.

sorbitol = experiment: Sorbitol in subcutaneous muscle subjacent to the wound; settings: diabetic rats, wet muscle weight
Experimental: Each muscle sample was cut into small pieces and ground in the presence of liquid nitrogen until it was powdered. The weight of the powered muscle tissue was determined, after which 1 mL of ice-cold 0.5 M perchloric acid was added and the samples were sonicated. The sonicated tissue was centrifuged for 5 min to remove precipitate. The resulting supernatant was neutralized by adding a solution 0.5 M potassium carbonate. The solution was then vortexed for 45 seconds, then centrifuged for 5 min at 5000 g and precipitate was discarded. The samples were stored in deep freezer at −86° C. until sorbitol determination.
The neutralized muscle extracts were vortexed and 10 μL aliquots along with sorbitol standards were added to a 96 well plate. Sorbitol dehydrogenase reaction was started by adding to each well 10 μL of a reaction mix containing 20 μg/μL sorbitol dehydrogenase, 2 mM NAD in 50 mM glycine-NaOH buffer pH 9.7. Following incubation with sorbitol dehydrogenase for 30 min at room temperature, 100 μL of a solution containing 65 μg/mL diaphorase, 10 uM FMN, 20 μM resazurin in 50 mM glycine-NaOH, pH 9.7 was added and the fluorescence (ex/em at 544/590 nm) was determined on a fluorescent plate reader for a period of an hour. Sorbitol content was expressed in nmol/mg of wet muscle weight.

[2] = system: rats with alloxan-induced diabetes; experiment: Healing of excision wounds in rats with alloxan-induced diabetes, solutions applied on the wound; settings: diabetic rats, 200 μl/daily on wound surface until full healing
Experimental: Use of 2-[(3Z)-6-fluoro-2-methyl-3-[(4-methylsulfinylphenyl)methylidene]inden-1-yl] acetic acid (sulindac) for the treatment of difficult healing wounds in rats with alloxan-induced diabetes.
63 adult male Wistar rats were used in the experiment. All animals were kept under observation for two weeks before the onset of the experiment to exclude any intercurrent infection. Animals were housed in standard plastic cages by 5 animals per cage. Rats were kept in air-conditioned room at 22±2° C., humidity of 60-70% and a natural light (12/12 in the day/night cycle). All rats were fed ad libitum with standard laboratory rats chow.
Diabetes mellitus was induced with alloxan, a highly toxic compound that destroyed the β-cells of the pancreas Langerhans islets, by single intraperitoneally injection at dose 170 mg per kg of body weight in 0.1 M citrate-phosphate buffer, pH 4.0 after 24-hours fasting. After alloxan administration drinking water was replaced by 2 per cent sucrose solution in tap water on 10 days period.
Rats were identified as diabetic on the basis of blood glucose levels (higher than 16 mmol/l after 12 h starvation at 10 days post-alloxan treatment; total 31 rats were diabetic). […]
Every day wounds were photographed by digital camera. Wound macroscopic parameters were quantified using the ImageJ software (NIH, USA).

[3] = mediana (25th; 75th percentile)

## CC1=C(CC(=O)O)c2cc(F)ccc2/C1=C\c1ccc([S+](C)[O-])cc1 (stereo not shown) [Sul, 2-[(3Z)-6-fluoro-2-methyl-3-[(4-methylsulfinylphenyl)methylidene]inden-1-yl] acetic acid]
Aldose reductase; M±m (SEM)
  AR: 0.64 ± 0.04 nmole NADPH/min/mg protein
Aldose reductase; [3]
  AR: 0.677(0.63; 0.69) ^ΔΔΔ nmole NADPH/min/mg protein
[1]
  Histology of the area of damage: the skin was rebuilt in the form of a scar tissue made of modified connective tissue
sorbitol; M±m (SEM)
  Sorbitol levels: 0.057 ± 0.005 nmol/mg
sorbitol; [3]
  Sorbitol levels: 0.053(0.048; 0.075) ^ΔΔΔ nmol/mg
[2]; M±m (SEM)
  Full healing: 23.7 ± 0.65 days
[2]; [3]
  Full healing: 24.0(22.0; 25.0) ^Δ days
